Experimental data reported in PubChem BioAssay (NCI).
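Here, GI50 denotes the concentration required for 50% inhibition of growth. TGI is the concentration that stops growth completely.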

Key:
Experiment in all cases: NCI anticancer screen, dose series, 384-well format
SK-MEL-5 melanoma = tested on: SK-MEL-5 melanoma
A549 NSCLC = tested on: A549 NSCLC
SR leukemia = tested on: SR leukemia
HCT-116 colon = tested on: HCT-116 colon
OVCAR-3 ovarian = tested on: OVCAR-3 ovarian
ACHN renal = tested on: ACHN renal
CAKI-1 renal = tested on: CAKI-1 renal
786-0 renal = tested on: 786-0 renal
MOLT-4 leukemia = tested on: MOLT-4 leukemia
PC-3 prostate = tested on: PC-3 prostate
MALME-3M melanoma = tested on: MALME-3M melanoma
NCI-H226 lung = tested on: NCI-H226 lung
SF-268 CNS = tested on: SF-268 CNS
KM12 colon = tested on: KM12 colon
M14 melanoma = tested on: M14 melanoma
SN12C renal = tested on: SN12C renal
IGROV1 ovarian = tested on: IGROV1 ovarian
NCI-H460 NSCLC = tested on: NCI-H460 NSCLC
COLO 205 colon = tested on: COLO 205 colon
SF-539 CNS = tested on: SF-539 CNS
K-562 leukemia = tested on: K-562 leukemia
A498 renal = tested on: A498 renal
SK-MEL-28 melanoma = tested on: SK-MEL-28 melanoma
OVCAR-5 ovarian = tested on: OVCAR-5 ovarian
SNB-19 CNS = tested on: SNB-19 CNS
MDA-MB-231 breast = tested on: MDA-MB-231 breast
NCI-H322M lung = tested on: NCI-H322M lung
HOP-62 NSCLC = tested on: HOP-62 NSCLC
T-47D breast = tested on: T-47D breast
TK-10 renal = tested on: TK-10 renal
HL-60(TB) leukemia = tested on: HL-60(TB) leukemia
SNB-75 CNS = tested on: SNB-75 CNS
U251 glioblastoma = tested on: U251 glioblastoma
HOP-92 NSCLC = tested on: HOP-92 NSCLC
NCI-H522 lung = tested on: NCI-H522 lung
SW-620 colon = tested on: SW-620 colon
UACC-257 melanoma = tested on: UACC-257 melanoma
RXF 393 renal = tested on: RXF 393 renal
NCI-H23 lung = tested on: NCI-H23 lung
DU-145 prostate = tested on: DU-145 prostate
UACC-62 melanoma = tested on: UACC-62 melanoma
HS 578T breast = tested on: HS 578T breast
SF-295 CNS = tested on: SF-295 CNS
BT-549 breast = tested on: BT-549 breast
MCF7 breast = tested on: MCF7 breast
HT29 colon = tested on: HT29 colon
MDA-MB-468 breast = tested on: MDA-MB-468 breast
HCT-15 colon = tested on: HCT-15 colon
OVCAR-4 ovarian = tested on: OVCAR-4 ovarian
EKVX NSCLC = tested on: EKVX NSCLC
OVCAR-8 ovarian = tested on: OVCAR-8 ovarian
MDA-MB-435 melanoma = tested on: MDA-MB-435 melanoma
SK-MEL-2 melanoma = tested on: SK-MEL-2 melanoma
UO-31 renal = tested on: UO-31 renal

## COc1cc(C(=O)O)ccc1NC(=O)[C@@H]1N[C@@H](CC(C)(C)C)[C@](C#N)(c2ccc(Cl)cc2F)[C@H]1c1cccc(Cl)c1F
SK-MEL-5 melanoma
  GI50: 1.15 µM
  TGI: 2.44 µM
A549 NSCLC
  GI50: 0.195 µM
  TGI: 4.76 µM
SR leukemia
  GI50: < 0.01 µM
  TGI: 0.0122 µM
HCT-116 colon
  GI50: 0.0526 µM
  TGI: 1.85 µM
OVCAR-3 ovarian
  GI50: 2.35 µM
  TGI: 5.27 µM
ACHN renal
  GI50: 0.03 µM
  TGI: 1.49 µM
CAKI-1 renal
  GI50: 0.0193 µM
  TGI: 13.7 µM
786-0 renal
  GI50: 3.54 µM
  TGI: 13.7 µM
MOLT-4 leukemia
  GI50: < 0.01 µM
  TGI: 0.0195 µM
PC-3 prostate
  GI50: 4.32 µM
  TGI: 14.2 µM
MALME-3M melanoma
  GI50: 0.0869 µM
  TGI: 11.9 µM
NCI-H226 lung
  GI50: 0.0202 µM
  TGI: 0.128 µM
SF-268 CNS
  GI50: 3.87 µM
  TGI: 12.5 µM
KM12 colon
  GI50: 0.0634 µM
  TGI: 1.38 µM
M14 melanoma
  GI50: 1.98 µM
  TGI: 11.2 µM
SN12C renal
  GI50: 4.7 µM
  TGI: 15.9 µM
IGROV1 ovarian
  GI50: 2.63 µM
  TGI: 13.8 µM
NCI-H460 NSCLC
  GI50: 4.31 µM
  TGI: 14.5 µM
COLO 205 colon
  GI50: 5.06 µM
  TGI: 18.1 µM
SF-539 CNS
  GI50: 3.09 µM
  TGI: 11.6 µM
K-562 leukemia
  GI50: 4.19 µM
  TGI: 13.9 µM
A498 renal
  GI50: 0.0406 µM
  TGI: 4.26 µM
SK-MEL-28 melanoma
  GI50: 2.73 µM
  TGI: 6.12 µM
OVCAR-5 ovarian
  GI50: 8.12 µM
  TGI: 20.2 µM
SNB-19 CNS
  GI50: 4.3 µM
  TGI: 14.1 µM
MDA-MB-231 breast
  GI50: 3.48 µM
  TGI: 12 µM
NCI-H322M lung
  GI50: 10.3 µM
  TGI: 22 µM
HOP-62 NSCLC
  GI50: 8.06 µM
T-47D breast
  GI50: 3.16 µM
TK-10 renal
  GI50: 5.05 µM
  TGI: 16.6 µM
HL-60(TB) leukemia
  GI50: 2.07 µM
  TGI: 3.51 µM
SNB-75 CNS
  GI50: 6.6 µM
  TGI: 18.7 µM
U251 glioblastoma
  GI50: 3.68 µM
HOP-92 NSCLC
  GI50: 1.94 µM
  TGI: 4.35 µM
NCI-H522 lung
  GI50: 3.74 µM
  TGI: 10.9 µM
SW-620 colon
  GI50: 4.53 µM
  TGI: 14.2 µM
UACC-257 melanoma
  GI50: 0.228 µM
  TGI: 0.657 µM
RXF 393 renal
  GI50: 2.59 µM
  TGI: 5.85 µM
NCI-H23 lung
  GI50: 4.77 µM
DU-145 prostate
  GI50: 5.75 µM
  TGI: 17.5 µM
UACC-62 melanoma
  GI50: < 0.01 µM
  TGI: 1.44 µM
HS 578T breast
  GI50: 3.75 µM
  TGI: 11.9 µM
SF-295 CNS
  GI50: 3.77 µM
BT-549 breast
  GI50: 3.03 µM
  TGI: 6.21 µM
MCF7 breast
  GI50: 0.0339 µM
  TGI: 1.04 µM
HT29 colon
  GI50: 4.23 µM
  TGI: 13.1 µM
MDA-MB-468 breast
  GI50: 3.79 µM
HCT-15 colon
  GI50: 3.51 µM
OVCAR-4 ovarian
  GI50: 5.83 µM
  TGI: 18.3 µM
EKVX NSCLC
  GI50: 5.88 µM
OVCAR-8 ovarian
  GI50: 4.65 µM
MDA-MB-435 melanoma
  GI50: 3.71 µM
  TGI: 12.2 µM
SK-MEL-2 melanoma
  GI50: 2.69 µM
  TGI: 6.28 µM
UO-31 renal
  GI50: 0.0758 µM
  TGI: 0.464 µM
